Experiments:
15-PGDH/HPGD = biological target: T1, 15-PGDH/HPGD (Homo sapiens, UniProt P15428); experiment: hPGDH inhibitor screening biochemical assay; conditions: 10 nM enzyme, 15 μM Prostaglandin E2, 0.25 mM NAD, fluorescence ex/em 340/485 nm
T1 construct: purchased R&D System 5660-DH
T1 sequence (P15428 1-266): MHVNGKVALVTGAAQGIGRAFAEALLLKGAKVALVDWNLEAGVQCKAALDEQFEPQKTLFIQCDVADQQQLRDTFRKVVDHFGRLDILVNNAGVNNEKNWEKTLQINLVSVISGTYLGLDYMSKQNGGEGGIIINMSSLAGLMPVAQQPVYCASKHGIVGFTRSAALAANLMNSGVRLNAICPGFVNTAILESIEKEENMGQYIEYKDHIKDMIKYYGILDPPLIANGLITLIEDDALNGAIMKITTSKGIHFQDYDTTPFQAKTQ
Description: A hydroxyprostaglandin dehydrogenase inhibition screening biochemical assay can be performed to assess the synthesized inhibitors provided herein. Provided herein is an exemplary biochemical assay for hPGDH inhibitor screening.
The in vitro biochemical assay can be performed in white, 384 plates in total 20 μl reaction volume consisting of 10 nM of 15-PGDH/HPGD (R&D System #5660-DH), 15 μM Prostaglandin E2 (Sigma, Cat #P5640-10 MG) and 0.25 mM B-Nicotinamide adenine dinucleotide sodium salt (Sigma, Cat #N0632-5G) made in reaction buffer (50 mM Tris-HCl, pH 7.5, 0.01% Tween 20) at 10-point dose response curve for test/tool compounds. Briefly, 5 μl (4×) of compounds solution and 5 μl (final concentration, 10 nM) of enzyme solution is added to white 384 well plates and incubated for 10 mins at 37° C. 5 μl (4×) of Prostaglandin E2 and 5 μl (4×) of β-Nicotinamide adenine dinucleotide sodium salt is added to the wells and incubated for 10 mins at room temperature. Fluorescence is recorded at ex/em=340 nm/485 nm.

A549 = A549 EC50 (cell assay, method not described); type: cell-based; conditions: Homo sapiens, A549, A549

SMILES | IC50 (15-PGDH/HPGD) [nM] | EC50 (A549) [nM]
O[C@H](COC1CC1)c1cnc2c(ccn2-c2cccc(-c3nnc[nH]3)c2)n1 [Compound 38A] | < 100 | < 100
O[C@@H](COC1CC1)c1cnc2c(ccn2-c2cccc(-c3nnc[nH]3)c2)n1 [Compound 38B] | < 100 | 100 to 1000
O=C(NC[C@H](O)c1cnc2c(cnn2-c2cccc(-c3nnc[nH]3)c2)c1)C1CC1 [Compound 39A] | ≥ 1000 | ≥ 1000
O=C(NC[C@@H](O)c1cnc2c(cnn2-c2cccc(-c3nnc[nH]3)c2)c1)C1CC1 [Compound 39B] | 100 to 1000 | ≥ 1000
CC(C)CC[C@H](O)c1cnc2c(ccn2-c2ccc(C(=O)O)cc2)n1 [Compound 40A] | < 100 | < 100
CC(C)CC[C@@H](O)c1cnc2c(ccn2-c2ccc(C(=O)O)cc2)n1 [Compound 40B] | < 100 | < 100
CC(C)OCC[C@H](O)c1cnc2c(ccn2-c2cccc(-c3nnc[nH]3)c2)c1 [Compound 41A] | < 100 | 100 to 1000
CC(C)OCC[C@@H](O)c1cnc2c(ccn2-c2cccc(-c3nnc[nH]3)c2)c1 [Compound 41B] | < 100 | < 100
O=C(O)c1ccc(-n2ncc3cc([C@@H](O)COC4CCC4)cnc32)cc1 [Compound 42A, (R)-4-(5-(2-cyclobutoxy-1-hydroxyethyl)-1H-pyrazolo[3,4-b]pyridin-1-yl)benzoic acid] | < 100 | ≥ 1000
O=C(O)c1ccc(-n2ncc3cc([C@H](O)COC4CCC4)cnc32)cc1 [Compound 42B] | < 100 | < 100
CC(C)(O)C[C@@H](O)c1cnc2c(cnn2-c2cccc(-c3nnc[nH]3)c2)c1 [Compound 43A] | < 100 | ≥ 1000
CC(C)(O)C[C@H](O)c1cnc2c(cnn2-c2cccc(-c3nnc[nH]3)c2)c1 [Compound 43B] | < 100 | < 100
CC(C)OCC[C@@H](O)c1cnc2c(cnn2-c2cccc(-c3nnc[nH]3)c2)c1 [Compound 44A] | < 100 | < 100
CC(C)OCC[C@H](O)c1cnc2c(cnn2-c2cccc(-c3nnc[nH]3)c2)c1 [Compound 44B] | < 100 | 100 to 1000
O=C(O)c1ccc(-n2ccc3nc([C@H](O)C4CC(F)(F)C4)cnc32)cc1 [Compound 46A] | < 100 | < 100
O=C(O)c1ccc(-n2ccc3nc([C@@H](O)C4CC(F)(F)C4)cnc32)cc1 [Compound 46B] | < 100 | 100 to 1000
O=C(O)c1ccc(-n2ccc3nc([C@@H](O)COC4CCC4)cnc32)cc1 [Compound 47A] | < 100 | ≥ 1000
O=C(O)c1ccc(-n2ccc3nc([C@H](O)COC4CCC4)cnc32)cc1 [Compound 47B] | < 100 | < 100
CC(C)OC[C@H](O)c1cnc2c(cnn2-c2ccc(C(=O)O)cc2)c1 [Compound 48A] | < 100 | 100 to 1000
CC(C)OC[C@@H](O)c1cnc2c(cnn2-c2ccc(C(=O)O)cc2)c1 [Compound 48B] | < 100 | < 100

SMILES | IC50 (15-PGDH/HPGD) [nM] | EC50 (A549) [nM]
CC(C)OC[C@H](O)c1cnc2c(ccn2-c2ccc(C(=O)O)cc2)n1 [Compound 49A] | < 100 | ≥ 1000
CC(C)OC[C@@H](O)c1cnc2c(ccn2-c2ccc(C(=O)O)cc2)n1 [Compound 49B] | < 100 | 100 to 1000
O[C@@H](c1cnc2c(cnn2-c2cccc(-c3nnc[nH]3)c2)c1)C1CC2CC2C1 (some centres unmarked) [Compound 50A] | < 100 | < 100
O[C@H](c1cnc2c(cnn2-c2cccc(-c3nnc[nH]3)c2)c1)C1CC2CC2C1 (some centres unmarked) [Compound 50B] | < 100 | < 100
O[C@H](c1cnc2c(cnn2-c2cccc(-c3nnc[nH]3)c2)c1)C1C2CCCCC21 (some centres unmarked) [Compound 51A] | < 100 | 100 to 1000
O[C@@H](c1cnc2c(cnn2-c2cccc(-c3nnc[nH]3)c2)c1)C1C2CCCCC21 (some centres unmarked) [Compound 51B] | 100 to 1000 | 100 to 1000
O[C@H](c1cnc2c(cnn2-c2cccc(-c3nnc[nH]3)c2)c1)C1CCOCC1 [Compound 52A] | < 100 | 100 to 1000
O[C@@H](c1cnc2c(cnn2-c2cccc(-c3nnc[nH]3)c2)c1)C1CCOCC1 [Compound 52B] | < 100 | < 100
CCOC(C)(C)[C@H](O)c1cnc2c(cnn2-c2ccc(C(=O)O)cc2)c1 [Compound 53A] | 100 to 1000 | 100 to 1000
CCOC(C)(C)[C@@H](O)c1cnc2c(cnn2-c2ccc(C(=O)O)cc2)c1 [Compound 53B] | < 100 | < 100
COC(C)(C)C[C@@H](O)c1cnc2c(ccn2-c2cccc(-c3nnc[nH]3)c2)c1 [Compound 54A] | < 100 | < 100
COC(C)(C)C[C@H](O)c1cnc2c(cnn2-c2cccc(-c3nnc[nH]3)c2)c1 [Compound 54B] | < 100 | 100 to 1000
COC(C)(C)CC[C@H](O)c1cnc2c(cnn2-c2cccc(-c3nnc[nH]3)c2)c1 [Compound 55A] | < 100 | 100 to 1000
COC(C)(C)CC[C@@H](O)c1cnc2c(cnn2-c2cccc(-c3nnc[nH]3)c2)c1 [Compound 55B] | < 100 | < 100
CC(C)(O)CC[C@H](O)c1cnc2c(cnn2-c2cccc(-c3nnc[nH]3)c2)c1 [Compound 56A] | < 100 | 100 to 1000
CC(C)(O)CC[C@@H](O)c1cnc2c(cnn2-c2cccc(-c3nnc[nH]3)c2)c1 [Compound 56B] | < 100 | 100 to 1000
CCCOC(C)(C)[C@H](O)c1cnc2c(cnn2-c2cccc(-c3nnc[nH]3)c2)c1 [Compound 57A] | ≥ 1000 | ≥ 1000
CCCOC(C)(C)[C@@H](O)c1cnc2c(cnn2-c2cccc(-c3nnc[nH]3)c2)c1 [Compound 57B] | < 100 | < 100
CCOC1([C@H](O)c2cnc3c(cnn3-c3ccc(C(=O)O)cc3)c2)CC1 [Compound 58A] | ≥ 1000 | ≥ 1000
CCOC1([C@@H](O)c2cnc3c(cnn3-c3ccc(C(=O)O)cc3)c2)CC1 [Compound 58B] | < 100 | 100 to 1000

SMILES | IC50 (15-PGDH/HPGD) [nM] | EC50 (A549) [nM]
COC1([C@@H](O)c2cnc3c(cnn3-c3cccc(-c4nnc[nH]4)c3)c2)CC1 [Compound 59A] | < 100 | 100 to 1000
COC1([C@H](O)c2cnc3c(cnn3-c3cccc(-c4nnc[nH]4)c3)c2)CC1 [Compound 59B] | 100 to 1000 | ≥ 1000
CC(C)OC[C@@H](O)c1cnc2c(cnn2-c2ccc3nc(N4CCOCC4)nn3c2)c1 [Compound 60A] | < 100 | < 100
CC(C)OC[C@H](O)c1cnc2c(cnn2-c2ccc3nc(N4CCOCC4)nn3c2)c1 [Compound 60B] | ≥ 1000 | 100 to 1000
CC(C)(OCC(F)F)[C@@H](O)c1cnc2c(cnn2-c2cccc(-c3nnc[nH]3)c2)c1 [Compound 61A] | < 100 | < 100
CC(C)(OCC(F)F)[C@H](O)c1cnc2c(cnn2-c2cccc(-c3nnc[nH]3)c2)c1 [Compound 61B] | ≥ 1000 | 100 to 1000
CCOC1([C@H](O)c2cnc3c(cnn3-c3ccc4nc(N5CCOCC5)nn4c3)c2)CC1 [Compound 62A] | ≥ 1000 | ≥ 1000
CCOC1([C@@H](O)c2cnc3c(cnn3-c3ccc4nc(N5CCOCC5)nn4c3)c2)CC1 [Compound 62B] | 100 to 1000 | ≥ 1000
CCOC1([C@H](O)c2cnc3c(cnn3-c3cccc(-c4nnc[nH]4)c3)c2)CC1 [Compound 63A] | ≥ 1000 | ≥ 1000
CCOC1([C@@H](O)c2cnc3c(cnn3-c3cccc(-c4nnc[nH]4)c3)c2)CC1 [Compound 63B] | < 100 | 100 to 1000
O[C@H](c1cnc2c(cnn2-c2ccc3nc(N4CCOCC4)nn3c2)c1)C1COC1 [Compound 64A] | 100 to 1000 | 100 to 1000
O[C@@H](c1cnc2c(cnn2-c2ccc3nc(N4CCOCC4)nn3c2)c1)C1COC1 [Compound 64B] | < 100 | < 100
COC1([C@@H](O)c2cnc3c(cnn3-c3cccc(-c4nnc[nH]4)c3)c2)CCC1 [Compound 65A] | 100 to 1000 | 100 to 1000
COC1([C@H](O)c2cnc3c(cnn3-c3cccc(-c4nnc[nH]4)c3)c2)CCC1 [Compound 65B] | ≥ 1000 | ≥ 1000
CC(C)OC[C@@H](O)c1cnc2c(cnn2-c2ccc(CCCC(=O)O)cc2)c1 [Compound 66A] | < 100 | < 100
CC(C)OC[C@H](O)c1cnc2c(cnn2-c2ccc(CCCC(=O)O)cc2)c1 [Compound 66B] | 100 to 1000 | 100 to 1000
CNC(=O)c1ccc(-n2ncc3cc([C@H](O)COC(C)C)cnc32)cc1 [Compound 67A] | < 100 | < 100
CNC(=O)c1ccc(-n2ncc3cc([C@@H](O)COC(C)C)cnc32)cc1 [Compound 67B] | < 100 | 100 to 1000
